Consider one molecule from patent publication EP1263458B1, “LOWERING SERUM CHOLESTEROL” (NOVO NORDISK A/S, priority 2000, dated 2005).

SMILES strings stand for the structures.

This data set has as its system Wistar rats subjected to neonatal monosodium glutamate treatment (MSG). Put plainly: Acute and subchronic anorectic effects, plasma triglycerides, model of hypothalamic obesity (MSG rats). It counts as in vivo. As to conditions: 100 µg/kg s.c. twice daily, rat group not specified. As for the experimental part:
Solutions were always made fresh approximately 1 hour prior to use and stored at 4°C in sterile tubes.

Setting [1] is: normalised within few days of treatment.

As to `CCCCCCCCCCCCCCCC(=O)N[C@@H](CCC(=O)NCCCC[C@H](NC(=O)[C@H](C)NC(=O)[C@H](C)NC(=O)[C@H](CCC(N)=O)NC(=O)CNC(=O)[C@H](CCC(=O)O)NC(=O)[C@H](CC(C)C)NC(=O)[C@H](Cc1ccc(O)cc1)NC(=O)[C@H](CO)NC(=O)[C@H](CO)NC(=O)[C@@H](NC(=O)[C@H](CC(=O)O)NC(=O)[C@H](CO)NC(=O)[C@@H](NC(=O)[C@H](Cc1ccccc1)NC(=O)[C@@H](NC(=O)CNC(=O)[C@H](CCC(=O)O)NC(=O)[C@H](C)NC(=O)[C@@H](N)Cc1cnc[nH]1)[C@@H](C)O)[C@@H](C)O)C(C)C)C(=O)N[C@@H](CCC(=O)O)C(=O)N[C@@H](Cc1ccccc1)C(=O)N[C@H](C(=O)N[C@@H](C)C(=O)N[C@@H](Cc1c[nH]c2ccccc12)C(=O)N[C@@H](CC(C)C)C(=O)N[C@H](C(=O)N[C@@H](CCCNC(=N)N)C(=O)NCC(=O)N[C@@H](CCCNC(=N)N)C(=O)NCC(=O)O)C(C)C)[C@@H](C)CC)C(=O)O` [GLP1, Arg^34, Lys^26(N^ε-(γ-Glu(N^α-hexadecanoyl)))-GLP-1(7-37)], under setting [1], the diuresis result was “increases” and the water intake entry is “Initial decreases”. Under “throughout the experiment”, the “plasma parameters of renal function” value is “remained normal”.
